Experimental data: ChEMBL document CHEMBL5046247, “Hexahydroazulene-2(1H)-one Sesquiterpenoids with Bridged Cyclobutane, Oxetane, and Tetrahydrofuran Rings from the Stems of Daphne papyracea with α-Glycosidase Inhibitory Activity” (J Nat Prod, 2022)

assay: Inhibition of Saccharomyces cerevisiae alpha-glucosidase assessed as reduction in PNP formation using alpha-PNPG as substrate incubated for 30 mins by microplate reader assay

| Structure (SMILES) | IC50 [µM] |
| --- | --- |
| O=C(CC[C@H](O)C(=O)c1ccc(O)cc1)c1ccccc1 | 139 |
| CO[C@@H](CCc1ccccc1)CC(=O)c1ccccc1 | 145 |
| O=C(/C=C/CCc1ccccc1)c1ccc(O)cc1 | 43.3 |
| C[C@H]1O[C@H](O[C@H]2[C@H](O)[C@@H](O)[C@@H](O[C@H]3[C@H](O)[C@@H](O)C(O)O[C@@H]3CO)O[C@@H]2CO)[C@H](O)[C@@H](O)[C@@H]1N[C@H]1C=C(CO)[C@@H](O)[C@H](O)[C@H]1O (some centres not stated) [ACARBOSE] | 578 |
| O=C(CCCCc1ccccc1)c1ccc(O)cc1 | 126 |

Results, then the molecule that gave them:

| IC50 [µM] | Structure (SMILES) |
| --- | --- |
| 102 | CC1=C2C[C@H](C(C)C)C[C@@H]3O[C@@]2(CC1=O)[C@@]3(C)O |
| 159 | CC1=C2[C@@H](O)[C@@]3(C)CC(=O)[C@@]4(C)[C@]2(CC1=O)C[C@]43C |
